Assay results published in ChEMBL document CHEMBL1154302, “Cytotoxic acacic acid glycosides from the roots of Albizia coriaria” (J Nat Prod, 2009).
pIC50: −log10 of the molar value.

How the values were obtained:
HCT-116 = assay: Cytotoxicity against human HCT116 cells after 1 hr by MTT assay; assay type: functional, cell-based; details: HCT-116, 1 h
HT-29 = assay: Cytotoxicity against human HT-29 cells after 1 hr by MTT assay; assay type: functional, cell-based; details: HT-29, 1 h

Compound	pIC50 (HCT-116)	pIC50 (HT-29)
C=C[C@](C)(CC/C=C(\C)C(=O)O[C@H]1[C@H](O)[C@@H](O)[C@H](O[C@](C)(C=C)CC/C=C(\C)C(=O)O[C@H]2[C@H](O)[C@@H](O)[C@H](O[C@](C)(C=C)CC/C=C(/C)C(=O)O[C@H]3C[C@]4(C(=O)O[C@@H]5O[C@H](CO)[C@@H](O)[C@H](O)[C@H]5O[C@@H]5O[C@@H](C)[C@H](O[C@@H]6O[C@@H](CO)[C@H](O)[C@H]6O)[C@@H](O[C@@H]6O[C@H](CO)[C@@H](O)[C@H](O)[C@H]6O)[C@H]5O)[C@H](O)C[C@]5(C)C(=CC[C@@H]6[C@@]7(C)CC[C@H](O[C@@H]8O[C@H](CO[C@@H]9O[C@H](C)[C@H](O)[C@H](O)[C@H]9O)[C@@H](O)[C@H](O)[C@H]8O[C@@H]8O[C@H](CO)[C@@H](O)[C@H](O)[C@H]8O)C(C)(C)C7CC[C@]65C)[C@@H]4CC3(C)C)O[C@@H]2C)O[C@@H]1C)O[C@@H]1O[C@H](C)[C@@H](O)[C@H](O)[C@H]1O (some centres undefined) [CORIARIOSIDE A]	5.38	5.17
CC(=O)O[C@H]1C(=O)[C@@]2(C)[C@H]([C@H](OC(=O)c3ccccc3)[C@]3(O)C[C@H](OC(=O)[C@H](O)[C@@H](NC(=O)c4ccccc4)c4ccccc4)C(C)=C1C3(C)C)[C@]1(OC(C)=O)CO[C@@H]1C[C@@H]2O [PACLITAXEL]	8.46	8.47
